Laboratory results from patent publication US9873696B2, “Neprilysin inhibitors” (THERAVANCE BIOPHARMA R&D IP, LLC, priority 2010, dated 2018).

What follows are compounds tested against T1, human NEP (Homo sapiens, UniProt P08473) (assay: In vitro enzyme inhibition assay at human NEP (Assay 1)). Conditions: recombinant enzyme, fluorogenic peptide substrate, 37° C.
T1 construct: purchased R&D Systems, Minneapolis, Minn; 1182-ZN
Type: biochemical
Procedure, shortened: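 Recombinant enzyme preincubated with compound 30 min at 37 °C, then 10 μM Mca-D-Arg-Arg-Leu-Dap-(Dnp)-OH added in 50 mM HEPES pH 7.5, 100 mM NaCl, 0.01% Tween-20, 10 μM ZnSO4; stopped after 20 min with acetic acid. Fluorescence read at 320/405 nm; Ki from nonlinear fit of v=v0/[1+(I/K′)], reported as pKi.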

T1 sequence (P08473 whole entry): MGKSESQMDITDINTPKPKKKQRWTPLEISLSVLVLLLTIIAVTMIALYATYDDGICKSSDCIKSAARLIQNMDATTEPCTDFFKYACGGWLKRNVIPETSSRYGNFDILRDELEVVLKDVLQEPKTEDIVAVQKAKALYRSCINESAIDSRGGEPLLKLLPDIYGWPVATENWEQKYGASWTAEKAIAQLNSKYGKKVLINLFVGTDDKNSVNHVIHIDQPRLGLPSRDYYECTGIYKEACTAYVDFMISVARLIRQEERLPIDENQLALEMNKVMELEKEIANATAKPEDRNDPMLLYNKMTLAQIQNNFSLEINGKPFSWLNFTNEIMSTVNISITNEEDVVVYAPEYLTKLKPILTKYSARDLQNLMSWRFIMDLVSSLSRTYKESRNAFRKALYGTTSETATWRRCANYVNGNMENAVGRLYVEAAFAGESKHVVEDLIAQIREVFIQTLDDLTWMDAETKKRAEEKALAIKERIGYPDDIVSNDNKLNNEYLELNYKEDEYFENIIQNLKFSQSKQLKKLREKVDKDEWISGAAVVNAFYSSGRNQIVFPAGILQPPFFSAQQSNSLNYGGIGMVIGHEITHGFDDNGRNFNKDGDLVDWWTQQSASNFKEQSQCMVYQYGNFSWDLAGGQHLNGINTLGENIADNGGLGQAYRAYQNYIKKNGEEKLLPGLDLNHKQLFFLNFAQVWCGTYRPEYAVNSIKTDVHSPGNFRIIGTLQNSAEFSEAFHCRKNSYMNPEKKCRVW

Ki [nM]	Structure (SMILES)
≤ 1	O=C(NN(Cc1ccc(-c2cc(Cl)ccc2F)cc1)C[C@@H](O)C(=O)O)c1c[nH]c(=O)o1 [Example 8-74, (R)-3-[N-(5′-Chloro-2′-fluoro-biphenyl-4-ylmethyl)-N′-(2-oxo-2,3-dihydro-oxazole-5-carbonyl)-hydrazino]-2-hydroxy-propionic acid]
≤ 1	O=C(NN(Cc1ccc(-c2cc(Cl)ccc2F)cc1)C[C@@H](O)C(=O)O)c1cnn[nH]1 [Example 8-75, (R)-3-[N-(5′-Chloro-2′-fluoro-biphenyl-4-ylmethyl)-N′-(3H-[1,2,3]triazole-4-carbonyl)-hydrazino]-2-hydroxy-propionic acid]
≤ 1	O=C(NN(Cc1ccc(-c2cc(Cl)ccc2F)cc1)C[C@@H](O)C(=O)O)c1cn(O)nn1 [Example 8-76, (R)-3-[N-(5′-Chloro-2′-fluoro-biphenyl-4-ylmethyl)-N′-(1-hydroxy-1H-[1,2,3]triazole-4-carbonyl)-hydrazino]-2-hydroxy-propionic acid]
≤ 1	Cc1ccc(Cl)cc1-c1ccc(CN(C[C@@H](O)C(=O)O)NC(=O)c2cn(O)nn2)cc1 [Example 8-80, (R)-3-[N-(5′-Chloro-2′-methyl-biphenyl-4-ylmethyl)-N′-(1-hydroxy-1H-[1,2,3]triazole-4-carbonyl)-hydrazino]-2-hydroxy-propionic acid]
12.6 to 100	O=C(NN(Cc1ccc(-c2cc(Cl)cc(Cl)c2)cc1)C[C@@H](O)C(=O)O)c1cn(O)nn1 [Example 8-81, (R)-3-[N-(3′,5′-Dichloro-biphenyl-4-ylmethyl)-N′-(1-hydroxy-1H-[1,2,3]triazole-4-carbonyl)-hydrazino]-2-hydroxy-propionic acid]
≤ 1	O=C(NN(Cc1ccc(-c2cc(Cl)ccc2F)cc1)C[C@@H](O)C(=O)O)c1n[nH]c(Cl)n1 [Example 8-82, (R)-3-[N-(5′-Chloro-2′-fluoro-biphenyl-4-ylmethyl)-N′-(5-chloro-1H-[1,2,4]triazole-3-carbonyl)-hydrazino]-2-hydroxy-propionic acid]
≤ 1	O=C(NN(Cc1ccc(-c2cc(Cl)ccc2F)cc1)C[C@@H](O)C(=O)O)c1cnc(O)s1 [Example 8-83, (R)-3-[N-(5′-Chloro-2′-fluoro-biphenyl-4-ylmethyl)-N′-(2-hydroxy-thiazole-5-carbonyl)-hydrazino]-2-hydroxy-propionic acid]
≤ 1	O=C(NN(Cc1ccc(-c2cccc(Cl)c2)cc1F)C[C@@H](O)C(=O)O)c1cc(O)no1 [Example 9A, (R)-3-[N-(3′-Chloro-3-fluorobiphenyl-4-ylmethyl)-N′-(3-hydroxyisoxazole-5-carbonyl)-hydrazino]-2-hydroxpropionic Acid]
1.26 to 10	O=C(NN(Cc1ccc(-c2ccccc2)cc1F)C[C@@H](O)C(=O)O)c1cc(O)no1 [Example 10-1, (R)-3-[N-(3-Fluoro-biphenyl-4-ylmethyl)-N′-(3-hydroxy-isoxazole-5-carbonyl)-hydrazino]-2-hydroxy-propionic acid]
1.26 to 10	N#Cc1cc(-c2cccc(Cl)c2)ccc1CN(C[C@@H](O)C(=O)O)NC(=O)c1cc(O)no1 [Example 10-2, (R)-3-[N-(3′-Chloro-3-cyano-biphenyl-4-ylmethyl)-N′-(3-hydroxy-isoxazole-5-carbonyl)-hydrazino]-2-hydroxy-propionic acid]
≤ 1	O=C(NN(Cc1ccc(-c2cccc(Cl)c2)c(Cl)c1)C[C@@H](O)C(=O)O)c1cc(O)no1 [Example 10-3, (R)-3-[N-(2,3′-Dichloro-biphenyl-4-ylmethyl)-N′-(3-hydroxy-isoxazole-5-carbonyl)-hydrazino]-2-hydroxy-propionic acid]
≤ 1	O=C(NN(Cc1ccc(-c2cccc(Cl)c2)c(F)c1)C[C@@H](O)C(=O)O)c1cc(O)no1 [Example 10-6, (R)-3-[N-(3′-Chloro-2-fluoro-biphenyl-4-ylmethyl)-N′-(3-hydroxy-isoxazole-5-carbonyl)-hydrazino]-2-hydroxy-propionic acid]
≤ 1	O=C(NN(Cc1ccc(-c2cc(Cl)ccc2F)cc1Cl)C[C@@H](O)C(=O)O)c1cc(O)no1 [Example 10-7, (R)-3-[N-(3,5′-Dichloro-2′-fluoro-biphenyl-4-ylmethyl)-N′-(3-hydroxy-isoxazole-5-carbonyl)-hydrazino]-2-hydroxy-propionic acid]
1.26 to 10	O=C(NN(Cc1ccc(-c2cccc(Cl)c2)cc1F)C[C@@H](O)C(=O)O)c1nnn[nH]1 [Example 10-8, (R)-3-[N-(3′-Chloro-3-fluoro-biphenyl-4-ylmethyl)-N′-(1H-tetrazole-5-carbonyl)-hydrazino]-2-hydroxy-propionic acid]
≤ 1	O=C(NN(Cc1ccc(-c2cccc(Cl)c2)cc1F)C[C@@H](O)C(=O)O)c1cn(O)nn1 [Example 10-9, (R)-3-[N-(3′-Chloro-3-fluoro-biphenyl-4-ylmethyl)-N′-(1-hydroxy-1H-[1,2,3]triazole-4-carbonyl)-hydrazino]-2-hydroxy-propionic acid]
≤ 1	O=C(NN(Cc1ccc(-c2cc(Cl)ccc2F)cc1Cl)C[C@@H](O)C(=O)O)c1c[nH]nn1 [Example 10-10, (R)-3-[N-(3,5′-Dichloro-2′-fluoro-biphenyl-4-ylmethyl)-N′-(1H-[1,2,3]triazole-4-carbonyl)-hydrazino]-2-hydroxy-propionic acid]
≤ 1	O=C(NN(Cc1ccc(-c2cccc(Cl)c2)cc1Cl)C[C@@H](O)C(=O)O)c1c[nH]nn1 [Example 10-11, (R)-3-[N-(3,3′-Dichloro-biphenyl-4-ylmethyl)-N′-(1H-[1,2,3]triazole-4-carbonyl)-hydrazino]-2-hydroxy-propionic acid]
